# Data reported in the supplement of paper PMC10307832.
# Key:
# Assay in all cases: relative viability (nuclei count vs DMSO), 5 days (fraction); higher = more cells survive
# LU99A = system: LU99A
# Summary of the method: (§1)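 Lung cancer cell lines in 1536-well plates were dosed by pin tool the day after seeding, either with one drug alone or with a fixed anchor-drug dose plus five library-drug doses (not always all listed) in √10 steps. After 5 days, cells were fixed and their nuclei stained in one step (final 0.05% Triton X-100, 1% formaldehyde, 1 ug/ml Hoechst), then counted on 4× images. Relative viability is the nuclei count in treated wells divided by that in vehicle wells. Values are medians of duplicate plates.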
# NCI-H1437 = system: NCI-H1437
# Summary of the method: as §1
# NCI-H460 = system: NCI-H460
# Summary of the method: as §1
# HCC-366 = system: HCC-366
# Summary of the method: as §1
# NCI-H1651 = system: NCI-H1651
# Summary of the method: as §1
# NCI-H358 = system: NCI-H358
# Summary of the method: as §1
# NCI-H1734 = system: NCI-H1734
# Summary of the method: as §1
# NCI-H1975 = system: NCI-H1975
# Summary of the method: as §1
# CAL-12T = system: CAL-12T
# Summary of the method: as §1
# NCI-H2085 = system: NCI-H2085
# Summary of the method: as §1
# NCI-H1793 = system: NCI-H1793
# Summary of the method: as §1
# NCI-H838 = system: NCI-H838
# Summary of the method: as §1
# NCI-H441 = system: NCI-H441
# Summary of the method: as §1
# NCI-H2342 = system: NCI-H2342
# Summary of the method: as §1
# NCI-H1355 = system: NCI-H1355
# Summary of the method: as §1
# LOU-NH91 = system: LOU-NH91
# Summary of the method: as §1
# BEN = system: BEN
# Summary of the method: as §1
smiles,measurement,setting,value
O=c1cc(-c2cccc3c2Sc2ccccc2S3)oc(N2CCOCC2)c1 + NC(=O)Nc1cc(-c2cccc(F)c2)sc1C(=O)N[C@H]1CCCNC1 [AZD7762] (partner 0.2 µM),relative viability,LU99A; first compound 0.08 µM,0.28
same,relative viability,LU99A; first compound 0.253 µM,0.349
same,relative viability,LU99A; first compound 0.8 µM,0.38
same,relative viability,LU99A; first compound 2.53 µM,0.309
same,relative viability,LU99A; first compound 8 µM,0.456
same,relative viability,NCI-H1437; first compound 0.08 µM,1.07
same,relative viability,NCI-H1437; first compound 0.253 µM,1.23
same,relative viability,NCI-H1437; first compound 0.8 µM,1.2
same,relative viability,NCI-H1437; first compound 2.53 µM,1.17
same,relative viability,NCI-H1437; first compound 8 µM,1.23
same,relative viability,NCI-H460; first compound 0.08 µM,0.742
same,relative viability,NCI-H460; first compound 0.253 µM,0.695
same,relative viability,NCI-H460; first compound 0.8 µM,0.669
same,relative viability,NCI-H460; first compound 2.53 µM,0.431
same,relative viability,NCI-H460; first compound 8 µM,0.685
same,relative viability,HCC-366; first compound 0.08 µM,0.258
same,relative viability,HCC-366; first compound 0.253 µM,0.32
same,relative viability,HCC-366; first compound 0.8 µM,0.302
same,relative viability,HCC-366; first compound 2.53 µM,0.118
same,relative viability,HCC-366; first compound 8 µM,0.222
same,relative viability,NCI-H1651; first compound 0.08 µM,0.452
same,relative viability,NCI-H1651; first compound 0.253 µM,0.538
same,relative viability,NCI-H1651; first compound 0.8 µM,0.44
same,relative viability,NCI-H1651; first compound 2.53 µM,0.389
same,relative viability,NCI-H1651; first compound 8 µM,0.425
same,relative viability,NCI-H358; first compound 0.08 µM,0.456
same,relative viability,NCI-H358; first compound 0.253 µM,0.581
same,relative viability,NCI-H358; first compound 0.8 µM,0.523
same,relative viability,NCI-H358; first compound 2.53 µM,0.501
same,relative viability,NCI-H358; first compound 8 µM,0.534
same,relative viability,NCI-H1734; first compound 0.08 µM,0.512
same,relative viability,NCI-H1734; first compound 0.253 µM,0.541
same,relative viability,NCI-H1734; first compound 0.8 µM,0.581
same,relative viability,NCI-H1734; first compound 8 µM,0.63
same,relative viability,NCI-H1975; first compound 0.08 µM,0.601
same,relative viability,NCI-H1975; first compound 0.253 µM,0.733
same,relative viability,NCI-H1975; first compound 0.8 µM,0.502
same,relative viability,NCI-H1975; first compound 2.53 µM,0.631
same,relative viability,NCI-H1975; first compound 8 µM,0.678
same,relative viability,CAL-12T; first compound 0.08 µM,0.585
same,relative viability,CAL-12T; first compound 0.253 µM,0.555
same,relative viability,CAL-12T; first compound 0.8 µM,0.601
same,relative viability,CAL-12T; first compound 2.53 µM,0.626
same,relative viability,CAL-12T; first compound 8 µM,0.642
same,relative viability,NCI-H2085; first compound 0.08 µM,1.01
same,relative viability,NCI-H2085; first compound 0.253 µM,1.17
same,relative viability,NCI-H2085; first compound 0.8 µM,1.02
same,relative viability,NCI-H2085; first compound 2.53 µM,0.836
same,relative viability,NCI-H2085; first compound 8 µM,0.614
same,relative viability,NCI-H1793; first compound 0.08 µM,0.299
same,relative viability,NCI-H1793; first compound 0.253 µM,0.48
same,relative viability,NCI-H1793; first compound 0.8 µM,0.458
same,relative viability,NCI-H1793; first compound 2.53 µM,0.182
same,relative viability,NCI-H1793; first compound 8 µM,0.377
same,relative viability,NCI-H838; first compound 0.08 µM,0.933
same,relative viability,NCI-H838; first compound 0.253 µM,1.09
same,relative viability,NCI-H838; first compound 0.8 µM,0.898
same,relative viability,NCI-H838; first compound 2.53 µM,0.941
same,relative viability,NCI-H838; first compound 8 µM,0.98
same,relative viability,NCI-H441; first compound 0.08 µM,0.965
same,relative viability,NCI-H441; first compound 0.253 µM,1.24
same,relative viability,NCI-H441; first compound 0.8 µM,1.18
same,relative viability,NCI-H441; first compound 2.53 µM,0.941
same,relative viability,NCI-H441; first compound 8 µM,1.21
same,relative viability,NCI-H2342; first compound 0.08 µM,0.415
same,relative viability,NCI-H2342; first compound 0.253 µM,0.466
same,relative viability,NCI-H2342; first compound 0.8 µM,0.545
same,relative viability,NCI-H2342; first compound 2.53 µM,0.529
same,relative viability,NCI-H2342; first compound 8 µM,0.541
same,relative viability,NCI-H1355; first compound 0.08 µM,0.703
same,relative viability,NCI-H1355; first compound 0.253 µM,0.915
same,relative viability,NCI-H1355; first compound 0.8 µM,0.743
same,relative viability,NCI-H1355; first compound 2.53 µM,0.554
same,relative viability,NCI-H1355; first compound 8 µM,0.756
same,relative viability,LOU-NH91; first compound 0.08 µM,0.764
same,relative viability,LOU-NH91; first compound 0.253 µM,0.778
same,relative viability,LOU-NH91; first compound 0.8 µM,0.697
same,relative viability,LOU-NH91; first compound 2.53 µM,0.714
same,relative viability,LOU-NH91; first compound 8 µM,0.786
same,relative viability,BEN; first compound 0.08 µM,0.694
same,relative viability,BEN; first compound 0.253 µM,0.656
same,relative viability,BEN; first compound 0.8 µM,0.647
same,relative viability,BEN; first compound 2.53 µM,0.618
same,relative viability,BEN; first compound 8 µM,0.734
